How the values were obtained:
Ba/F3-Δ19del/T790M/C797S = Ba/F3-Δ19del/T790M/C797S (Homo sapiens, UniProt P00533, T790M/C797S, cells depend on it, form not given); test: Cell proliferation experiment (CellTiter Glo, 72 hours); format: cell-based; conditions: read-out: Ba/F3/EGFR Δ19del/T790M/C797S IC50
In short: (§1)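 Ba/F3 cells overexpressing EGFR Δ19del/T790M/C797S or EGFR WT were seeded at 2000 or 3000 cells/well and exposed 72 h to 9 compound concentrations (3-fold, top 10000 or 1111 nM final, 0.1% DMSO). CellTiter-Glo luminescence gave survival inhibition versus controls; IC50 from nonlinear fit.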

Ba/F3 EGFR WT = Ba/F3 EGFR WT (Homo sapiens, UniProt P00533); test: as above; format: cell-based; conditions: read-out: BaF3 EGFR WT IC50
In short: as §1

[1] = tested on: Ba/F3-Δ19del/T790M/C797S-derived xenograft (CDX); test: In vivo efficacy experiment, xenograft tumor growth; parameters: species or system BALB/c nude mice
Protocol: In vivo efficacy experiments were performed on Ba/F3-Δ19del/T790M/C797S-derived xenograft (CDX) BALB/c nude mice. […] They were fed in an SPF environment, with each cage individually ventilated (6 mice per cage). […] Each mouse was subcutaneously inoculated with 0.1 mL cells (5×10^6 cells, the volume ratio of matrigel to cell was 1:1) on the right upper limb. When the tumor volume was about 150 mm^3, the grouped mice were separately administered with compound J-022 (10 mg/kg, 100 mg/kg, 150 mg/kg) orally QD for 15 consecutive days. Tumor diameters were measured with vernier calipers twice a week. The volume of tumor is calculated as: V=0.5a×b^2, wherein a and b represent the long diameter and short diameter of the tumor, respectively. The tumor growth inhibition rate TGI (%) was calculated to evaluate the tumor inhibitory effect of the compounds. TGI (%) was calculated with the following formula: TGI (%)=(1−(the average tumor volume of the compound treatment group at the end of the administration−the average tumor volume of the compound treatment group at the beginning of the administration)/(the average tumor volume of the solvent control group at the end of treatment−the average tumor volume of the solvent control group at the beginning of treatment))×100%.

[2] = In vivo safety experiment (body weight, tolerance)
Protocol: The safety evaluation of the drug was carried out in BALB/c nude mice. […] They were fed in an SPF environment, and each cage was individually ventilated (5 mice per cage). All cages, bedding and water were disinfected prior to use. Mice were purchased from Viton Lever and were allowed to acclimate in the laboratory. Mice were administered orally QD.

Ba/F3-Δ19del/T790M/C797S, sequence (P00533 with tags, fused parts or gaps DEL746-750/T790M/C797S, form open): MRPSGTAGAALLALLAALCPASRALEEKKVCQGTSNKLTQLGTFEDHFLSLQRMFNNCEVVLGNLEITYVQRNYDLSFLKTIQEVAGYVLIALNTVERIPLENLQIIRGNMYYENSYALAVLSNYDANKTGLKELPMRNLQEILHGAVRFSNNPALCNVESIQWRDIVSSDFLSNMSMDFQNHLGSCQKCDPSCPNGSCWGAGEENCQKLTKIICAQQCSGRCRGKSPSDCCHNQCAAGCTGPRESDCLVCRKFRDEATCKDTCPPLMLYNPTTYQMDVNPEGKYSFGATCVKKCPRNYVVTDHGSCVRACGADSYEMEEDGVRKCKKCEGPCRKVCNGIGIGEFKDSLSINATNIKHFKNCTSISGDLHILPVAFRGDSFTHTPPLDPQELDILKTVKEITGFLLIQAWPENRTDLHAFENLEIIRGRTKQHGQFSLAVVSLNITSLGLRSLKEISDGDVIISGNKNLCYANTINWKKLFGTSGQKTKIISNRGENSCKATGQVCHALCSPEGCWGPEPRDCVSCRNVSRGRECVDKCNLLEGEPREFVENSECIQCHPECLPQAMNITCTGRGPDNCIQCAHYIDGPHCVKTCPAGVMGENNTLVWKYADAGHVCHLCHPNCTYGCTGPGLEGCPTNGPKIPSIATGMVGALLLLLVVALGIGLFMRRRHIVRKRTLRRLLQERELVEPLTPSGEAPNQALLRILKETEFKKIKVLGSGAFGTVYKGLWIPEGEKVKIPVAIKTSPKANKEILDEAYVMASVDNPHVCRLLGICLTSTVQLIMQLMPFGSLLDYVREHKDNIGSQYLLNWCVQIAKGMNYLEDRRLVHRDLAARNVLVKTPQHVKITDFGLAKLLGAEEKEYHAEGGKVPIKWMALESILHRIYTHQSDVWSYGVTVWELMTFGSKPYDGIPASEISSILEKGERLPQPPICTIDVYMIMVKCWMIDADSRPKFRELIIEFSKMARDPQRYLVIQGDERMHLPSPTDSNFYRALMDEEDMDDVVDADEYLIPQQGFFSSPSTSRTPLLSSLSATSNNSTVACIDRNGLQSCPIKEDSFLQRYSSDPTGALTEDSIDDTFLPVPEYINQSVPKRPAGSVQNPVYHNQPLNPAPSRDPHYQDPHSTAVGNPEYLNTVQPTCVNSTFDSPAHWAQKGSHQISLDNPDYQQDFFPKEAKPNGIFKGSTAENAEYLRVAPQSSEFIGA
Ba/F3 EGFR WT, sequence (P00533 whole entry, change not shown): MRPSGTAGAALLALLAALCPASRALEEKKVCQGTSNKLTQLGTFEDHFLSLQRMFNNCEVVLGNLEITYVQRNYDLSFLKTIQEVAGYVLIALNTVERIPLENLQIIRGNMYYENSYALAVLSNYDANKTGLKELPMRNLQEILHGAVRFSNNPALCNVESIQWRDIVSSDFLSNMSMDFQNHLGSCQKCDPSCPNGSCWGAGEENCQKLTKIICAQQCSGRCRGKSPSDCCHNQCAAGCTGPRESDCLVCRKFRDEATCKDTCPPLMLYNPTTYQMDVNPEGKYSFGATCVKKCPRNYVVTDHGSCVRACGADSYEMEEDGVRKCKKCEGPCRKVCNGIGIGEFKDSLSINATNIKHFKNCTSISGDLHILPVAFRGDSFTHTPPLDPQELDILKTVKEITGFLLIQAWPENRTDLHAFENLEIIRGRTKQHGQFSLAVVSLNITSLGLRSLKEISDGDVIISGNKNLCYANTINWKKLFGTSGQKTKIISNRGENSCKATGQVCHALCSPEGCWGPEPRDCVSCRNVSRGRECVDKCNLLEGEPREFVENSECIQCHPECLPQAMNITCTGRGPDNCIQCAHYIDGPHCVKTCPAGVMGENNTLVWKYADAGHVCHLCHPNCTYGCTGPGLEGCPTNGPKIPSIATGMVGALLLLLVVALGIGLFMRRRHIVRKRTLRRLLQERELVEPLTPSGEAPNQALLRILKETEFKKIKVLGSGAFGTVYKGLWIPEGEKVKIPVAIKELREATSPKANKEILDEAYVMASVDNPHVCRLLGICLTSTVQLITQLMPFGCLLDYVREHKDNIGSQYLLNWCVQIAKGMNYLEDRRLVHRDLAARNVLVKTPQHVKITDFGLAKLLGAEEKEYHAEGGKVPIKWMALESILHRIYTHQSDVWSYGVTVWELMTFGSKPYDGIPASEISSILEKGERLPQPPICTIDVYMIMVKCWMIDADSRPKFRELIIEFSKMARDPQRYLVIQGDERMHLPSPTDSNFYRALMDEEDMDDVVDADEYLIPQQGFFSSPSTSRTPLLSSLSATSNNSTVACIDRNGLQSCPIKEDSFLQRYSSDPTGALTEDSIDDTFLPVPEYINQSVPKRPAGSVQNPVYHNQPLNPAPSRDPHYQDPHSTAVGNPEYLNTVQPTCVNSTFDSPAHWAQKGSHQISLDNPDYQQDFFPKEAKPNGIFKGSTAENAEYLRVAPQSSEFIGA

COc1cc(N2CCC(N3CCN(C)CC3)CC2)c(C)cc1Nc1ncc(Br)c(Nc2ccc3nc(C4CC4)ccc3c2P(C)(C)=O)n1 [Compound J-022, (6-((5-Bromo-2-((2-methoxy-5-methyl-4-(4-(4-methylpiperazin-1-yl)piperidin-1-yl)phenyl)amino)pyrimidin-4-yl)amino)-2-cyclopropylquinolin-5-yl)dimethylphosphine oxide]
GI50 (Ba/F3-Δ19del/T790M/C797S): 6.8 nM | GI50 (Ba/F3 EGFR WT): 151 nM | Tumor volume ([1]; 10 mg/kg/day oral QD, 0 day): 152 mm^3 | 15 day TGI % ([1]; 10 mg/kg/day oral QD, 15 consecutive days): 53% | Tumor volume ([1]; 10 mg/kg/day oral QD, 3 day): 183 mm^3 | Tumor volume ([1]; 10 mg/kg/day oral QD, 7 day): 321 mm^3 | Tumor volume ([1]; 10 mg/kg/day oral QD, 10 day): 747 mm^3 | Tumor volume ([1]; 10 mg/kg/day oral QD, 15 day): 1650 mm^3 | Tumor regression ([1]; 100 mg/kg/day or 150 mg/kg/day, 15 consecutive days): tumor completely regressed | Tumor volume ([1]; 100 mg/kg/day oral QD, 0 day): 151 mm^3 | 15 day TGI % ([1]; 100 mg/kg/day oral QD, 15 consecutive days): 105% | Tumor volume ([1]; 100 mg/kg/day oral QD, 3 day): 99 mm^3 | Tumor volume ([1]; 100 mg/kg/day oral QD, 7 day): 59 mm^3 | Tumor volume ([1]; 100 mg/kg/day oral QD, 10 day): 0 mm^3 | Tumor volume ([1]; 100 mg/kg/day oral QD, 15 day): 0 mm^3 | Tumor volume ([1]; 150 mg/kg/day oral QD, 0 day): 152 mm^3 | 15 day TGI % ([1]; 150 mg/kg/day oral QD, 15 consecutive days): 105% | Tumor volume ([1]; 150 mg/kg/day oral QD, 3 day): 102 mm^3 | Tumor volume ([1]; 150 mg/kg/day oral QD, 7 day): 4 mm^3 | Tumor volume ([1]; 150 mg/kg/day oral QD, 10 day): 0 mm^3 | Tumor volume ([1]; 150 mg/kg/day oral QD, 15 day): 0 mm^3 | half effective dose ([1]; dose with TGI 53%): 10 mg/kg/day | Body weight of mouse ([2]; 75 mg/kg/day oral QD, 0 days): 18.7 g | Body weight of mouse ([2]; 75 mg/kg/day oral QD, 2 days): 18.9 g | Body weight of mouse ([2]; 75 mg/kg/day oral QD, 4 days): 19.2 g | Body weight of mouse ([2]; 75 mg/kg/day oral QD, 6 days): 19.4 g | Body weight of mouse ([2]; 100 mg/kg/day oral QD, 0 days): 18.7 g | Body weight of mouse ([2]; 100 mg/kg/day oral QD, 2 days): 18.6 g | Body weight of mouse ([2]; 100 mg/kg/day oral QD, 4 days): 19.0 g | Body weight of mouse ([2]; 100 mg/kg/day oral QD, 6 days): 19.2 g | Body weight of mouse ([2]; 150 mg/kg/day oral QD, 0 days): 18.7 g | Body weight of mouse ([2]; 150 mg/kg/day oral QD, 2 days): 18.3 g | Body weight of mouse ([2]; 150 mg/kg/day oral QD, 4 days): 18.5 g | Body weight of mouse ([2]; 150 mg/kg/day oral QD, 6 days): 18.4 g | Change in the body weight of mice ([2]; 150 mg/kg/day oral, 7 days): no significant change | Tolerability ([2]; 150 mg/kg/day, 7 days): tolerable | window from the effective dose to the intolerance dose ([2]; effective dose = dose corresponding to 50% TGI): greater than 15 times

From patent US20230131025A1, “QUINOLYL PHOSPHINE OXIDE COMPOUND, AND COMPOSITION AND APPLICATION THEREOF” (Betta Pharmaceuticals Co., Ltd., priority 2020, published 2023)
